Laboratory results reported in ChEMBL document CHEMBL2203208, “Synthesis and structure-activity relationships of dual PI3K/mTOR inhibitors based on a 4-amino-6-methyl-1,3,5-triazine sulfonamide scaffold” (Bioorg Med Chem Lett, 2012).
≈ marks a conversion by molar mass, not a printed value.

How the values were obtained:
physchem [1] = conditions: phosphate buffered saline
Description: Equilibrium solubility of the compound in phosphate buffered saline after 48 to 72 hrs

[2] = molecular target: Phosphatidylinositol 4,5-bisphosphate 3-kinase catalytic subunit alpha isoform (Homo sapiens, UniProt P42336)
Phosphatidylinositol 4,5-bisphosphate 3-kinase catalytic subunit alpha isoform, sequence (P42336 whole entry, canonical isoform): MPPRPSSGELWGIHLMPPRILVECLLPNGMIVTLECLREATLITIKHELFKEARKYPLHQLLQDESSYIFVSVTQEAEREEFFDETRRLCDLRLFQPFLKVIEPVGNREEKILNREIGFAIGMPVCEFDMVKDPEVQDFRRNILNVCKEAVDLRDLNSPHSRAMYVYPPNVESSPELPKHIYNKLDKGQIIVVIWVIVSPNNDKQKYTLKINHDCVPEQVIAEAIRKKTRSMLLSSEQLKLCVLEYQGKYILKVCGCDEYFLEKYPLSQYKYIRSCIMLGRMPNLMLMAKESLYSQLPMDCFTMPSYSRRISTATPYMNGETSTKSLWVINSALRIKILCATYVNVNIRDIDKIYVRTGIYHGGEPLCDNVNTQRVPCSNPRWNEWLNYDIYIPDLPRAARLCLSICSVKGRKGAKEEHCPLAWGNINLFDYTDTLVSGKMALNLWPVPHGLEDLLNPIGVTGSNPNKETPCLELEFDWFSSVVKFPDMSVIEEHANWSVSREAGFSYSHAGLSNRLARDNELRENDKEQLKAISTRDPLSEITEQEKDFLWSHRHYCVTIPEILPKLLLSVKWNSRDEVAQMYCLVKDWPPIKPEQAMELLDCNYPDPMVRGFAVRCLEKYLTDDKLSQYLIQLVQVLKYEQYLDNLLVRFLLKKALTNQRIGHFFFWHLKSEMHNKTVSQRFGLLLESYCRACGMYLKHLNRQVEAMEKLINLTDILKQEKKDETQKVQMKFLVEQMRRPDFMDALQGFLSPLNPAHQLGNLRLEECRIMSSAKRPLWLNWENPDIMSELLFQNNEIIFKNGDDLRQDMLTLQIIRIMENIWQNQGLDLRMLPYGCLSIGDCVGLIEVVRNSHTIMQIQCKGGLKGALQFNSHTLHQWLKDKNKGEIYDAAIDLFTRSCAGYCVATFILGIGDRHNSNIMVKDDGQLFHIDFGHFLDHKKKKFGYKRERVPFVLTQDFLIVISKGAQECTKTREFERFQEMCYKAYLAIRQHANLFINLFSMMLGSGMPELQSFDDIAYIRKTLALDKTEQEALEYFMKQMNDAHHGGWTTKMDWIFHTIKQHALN
Description: Inhibition of human N-terminal polyHis-tagged PI3K p110alpha expressed in baculovirus infected Hi5 cells using Phosphatidylinositol-4,5-bisphosphate as substrate after 20 mins by AlphaScreen assay

physchem [3] = conditions: simulated intestinal fluid
Description: Equilibrium solubility of the compound in simulated intestinal fluid after 48 to 72 hrs

physchem [4] = conditions: 0.01N HCl
Description: Equilibrium solubility of the compound in 0.01N HCl after 48 to 72 hrs

Rattus norvegicus [5] = species on record: Rattus norvegicus; conditions: in vivo, po, 2 mg/kg
[6] = molecular target: Serine/threonine-protein kinase mTOR (Homo sapiens, UniProt P42345)
Description: Inhibition of recombinant N-terminal GST-tagged mTOR using GFP-4EBP as substrate after 90 mins by TR-FRET assay

Rattus norvegicus [7] = species on record: Rattus norvegicus; conditions: in vivo, iv, 1 mg/kg
Description: (§1) Mean residence time in Sprague-Dawley rat at 1 mg/kg, iv

[8] = molecular target: Phosphatidylinositol 4,5-bisphosphate 3-kinase catalytic subunit beta isoform (Homo sapiens, UniProt P42338)
Phosphatidylinositol 4,5-bisphosphate 3-kinase catalytic subunit beta isoform, sequence (P42338 whole entry, canonical isoform): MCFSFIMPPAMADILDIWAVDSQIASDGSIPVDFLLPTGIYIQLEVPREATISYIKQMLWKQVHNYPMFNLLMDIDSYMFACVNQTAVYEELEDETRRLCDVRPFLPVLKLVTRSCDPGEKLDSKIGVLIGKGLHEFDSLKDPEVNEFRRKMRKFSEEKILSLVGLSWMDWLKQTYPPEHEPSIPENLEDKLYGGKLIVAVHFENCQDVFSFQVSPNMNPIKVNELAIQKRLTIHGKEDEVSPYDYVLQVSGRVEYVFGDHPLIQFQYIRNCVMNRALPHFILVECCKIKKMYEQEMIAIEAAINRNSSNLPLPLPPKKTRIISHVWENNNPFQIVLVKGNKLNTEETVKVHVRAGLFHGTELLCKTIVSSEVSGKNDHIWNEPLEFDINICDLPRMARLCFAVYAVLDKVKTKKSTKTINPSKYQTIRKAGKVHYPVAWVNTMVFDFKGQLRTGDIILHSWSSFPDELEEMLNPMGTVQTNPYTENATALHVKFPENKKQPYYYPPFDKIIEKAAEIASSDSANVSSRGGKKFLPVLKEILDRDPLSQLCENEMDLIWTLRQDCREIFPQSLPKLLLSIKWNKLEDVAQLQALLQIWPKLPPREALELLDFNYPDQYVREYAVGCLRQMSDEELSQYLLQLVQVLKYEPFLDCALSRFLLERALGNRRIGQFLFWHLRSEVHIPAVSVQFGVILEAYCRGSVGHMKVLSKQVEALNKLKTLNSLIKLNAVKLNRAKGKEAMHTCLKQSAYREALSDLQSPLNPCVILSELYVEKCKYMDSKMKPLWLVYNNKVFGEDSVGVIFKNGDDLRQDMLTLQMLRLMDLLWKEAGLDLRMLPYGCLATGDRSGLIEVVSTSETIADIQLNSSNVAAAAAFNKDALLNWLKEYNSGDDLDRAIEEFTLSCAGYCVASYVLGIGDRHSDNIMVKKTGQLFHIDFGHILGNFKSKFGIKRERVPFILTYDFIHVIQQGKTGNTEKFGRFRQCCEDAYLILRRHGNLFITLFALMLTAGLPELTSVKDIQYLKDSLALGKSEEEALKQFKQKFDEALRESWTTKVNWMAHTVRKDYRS
Description: Inhibition of human N-terminal polyHis-tagged PI3K p110beta expressed in baculovirus infected Hi5 cells using Phosphatidylinositol-4,5-bisphosphate as substrate after 20 mins by AlphaScreen assay

[9] = molecular target: Phosphatidylinositol 4,5-bisphosphate 3-kinase catalytic subunit gamma isoform (Homo sapiens, UniProt P48736); set-up: species or system BTI-TN-5B1-4
Phosphatidylinositol 4,5-bisphosphate 3-kinase catalytic subunit gamma isoform, sequence (P48736 whole entry, canonical isoform): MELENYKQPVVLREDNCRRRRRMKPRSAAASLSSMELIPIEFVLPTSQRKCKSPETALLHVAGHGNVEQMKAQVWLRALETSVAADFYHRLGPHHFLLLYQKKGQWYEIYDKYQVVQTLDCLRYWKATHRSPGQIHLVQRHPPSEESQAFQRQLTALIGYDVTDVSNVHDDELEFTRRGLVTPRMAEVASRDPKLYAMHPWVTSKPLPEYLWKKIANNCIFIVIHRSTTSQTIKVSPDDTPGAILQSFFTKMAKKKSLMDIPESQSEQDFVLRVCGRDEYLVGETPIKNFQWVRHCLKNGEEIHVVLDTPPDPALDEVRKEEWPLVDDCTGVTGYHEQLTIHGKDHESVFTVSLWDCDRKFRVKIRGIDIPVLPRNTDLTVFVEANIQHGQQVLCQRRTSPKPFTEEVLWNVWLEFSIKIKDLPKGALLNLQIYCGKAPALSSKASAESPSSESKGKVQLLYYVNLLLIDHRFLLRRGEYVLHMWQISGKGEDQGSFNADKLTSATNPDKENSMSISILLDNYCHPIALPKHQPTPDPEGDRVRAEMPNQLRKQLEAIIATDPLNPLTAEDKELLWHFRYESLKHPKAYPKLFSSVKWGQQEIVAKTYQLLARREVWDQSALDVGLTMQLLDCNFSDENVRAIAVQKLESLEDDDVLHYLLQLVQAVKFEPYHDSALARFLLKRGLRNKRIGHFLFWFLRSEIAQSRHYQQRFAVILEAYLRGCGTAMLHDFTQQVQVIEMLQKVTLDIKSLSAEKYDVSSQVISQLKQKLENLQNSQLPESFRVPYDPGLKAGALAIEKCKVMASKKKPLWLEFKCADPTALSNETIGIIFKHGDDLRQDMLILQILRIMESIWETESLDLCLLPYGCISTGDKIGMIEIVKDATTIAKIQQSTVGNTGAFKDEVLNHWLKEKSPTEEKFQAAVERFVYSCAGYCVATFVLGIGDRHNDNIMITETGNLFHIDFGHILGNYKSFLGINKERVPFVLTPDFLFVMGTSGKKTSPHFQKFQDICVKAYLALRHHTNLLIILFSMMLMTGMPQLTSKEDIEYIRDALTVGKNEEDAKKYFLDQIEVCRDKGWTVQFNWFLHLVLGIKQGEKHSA

Rattus norvegicus [10] = species on record: Rattus norvegicus; conditions: in vivo, iv, 1 mg/kg; remark: listed apart in the source
[11] = molecular target: Phosphatidylinositol 3-kinase catalytic subunit type 3 (Homo sapiens, UniProt Q8NEB9); assay: Inhibition of human VPS34 using phosphatidylinositol/phosphatidylserine as substrate after 30 mins by fluorescence-based immunoassay
Phosphatidylinositol 3-kinase catalytic subunit type 3, sequence (Q8NEB9 whole entry): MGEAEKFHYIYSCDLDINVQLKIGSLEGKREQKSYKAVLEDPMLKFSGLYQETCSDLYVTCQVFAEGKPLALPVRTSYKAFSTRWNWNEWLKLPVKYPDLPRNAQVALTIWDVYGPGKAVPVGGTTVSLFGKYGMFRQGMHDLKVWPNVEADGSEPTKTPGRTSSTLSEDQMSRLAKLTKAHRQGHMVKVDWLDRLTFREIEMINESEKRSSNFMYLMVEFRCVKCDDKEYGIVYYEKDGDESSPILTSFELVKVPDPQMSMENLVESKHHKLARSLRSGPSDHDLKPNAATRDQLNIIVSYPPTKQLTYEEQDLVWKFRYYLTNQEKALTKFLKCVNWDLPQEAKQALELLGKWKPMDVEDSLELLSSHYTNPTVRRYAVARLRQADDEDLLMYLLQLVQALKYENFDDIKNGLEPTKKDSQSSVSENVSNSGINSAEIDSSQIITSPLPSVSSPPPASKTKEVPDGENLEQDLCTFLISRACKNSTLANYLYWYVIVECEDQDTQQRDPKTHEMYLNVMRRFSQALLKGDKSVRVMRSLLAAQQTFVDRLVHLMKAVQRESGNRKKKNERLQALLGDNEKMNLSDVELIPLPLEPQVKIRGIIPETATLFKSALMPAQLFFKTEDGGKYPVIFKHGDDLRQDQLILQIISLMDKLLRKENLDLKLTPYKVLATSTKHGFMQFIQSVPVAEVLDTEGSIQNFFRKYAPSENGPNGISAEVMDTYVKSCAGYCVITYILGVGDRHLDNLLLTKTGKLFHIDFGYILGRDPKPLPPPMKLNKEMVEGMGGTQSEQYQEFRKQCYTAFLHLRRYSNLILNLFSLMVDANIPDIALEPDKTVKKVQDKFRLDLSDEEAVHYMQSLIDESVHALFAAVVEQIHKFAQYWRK

Rattus norvegicus [12] = species on record: Rattus norvegicus; conditions: in vivo, po, 2 mg/kg; remark: listed apart in the source
Rattus norvegicus [13] = species on record: Rattus norvegicus; conditions: in vivo, iv, 1 mg/kg; remark: listed apart in the source
Description: (§2) Clearance in Sprague-Dawley rat at 1 mg/kg, iv

in vitro [14] = conditions: rat, liver microsomes
Description: Clearance in rat liver microsomes at 1 uM after 30 mins in presence of NADPH

in vitro [15] = conditions: human, liver microsomes
Description: Clearance in human liver microsomes at 1 uM after 30 mins in presence of NADPH

[16] = molecular target: T1, Phosphatidylinositol 4,5-bisphosphate 3-kinase catalytic subunit delta isoform (Homo sapiens, UniProt O00329)
T1 sequence (O00329 whole entry): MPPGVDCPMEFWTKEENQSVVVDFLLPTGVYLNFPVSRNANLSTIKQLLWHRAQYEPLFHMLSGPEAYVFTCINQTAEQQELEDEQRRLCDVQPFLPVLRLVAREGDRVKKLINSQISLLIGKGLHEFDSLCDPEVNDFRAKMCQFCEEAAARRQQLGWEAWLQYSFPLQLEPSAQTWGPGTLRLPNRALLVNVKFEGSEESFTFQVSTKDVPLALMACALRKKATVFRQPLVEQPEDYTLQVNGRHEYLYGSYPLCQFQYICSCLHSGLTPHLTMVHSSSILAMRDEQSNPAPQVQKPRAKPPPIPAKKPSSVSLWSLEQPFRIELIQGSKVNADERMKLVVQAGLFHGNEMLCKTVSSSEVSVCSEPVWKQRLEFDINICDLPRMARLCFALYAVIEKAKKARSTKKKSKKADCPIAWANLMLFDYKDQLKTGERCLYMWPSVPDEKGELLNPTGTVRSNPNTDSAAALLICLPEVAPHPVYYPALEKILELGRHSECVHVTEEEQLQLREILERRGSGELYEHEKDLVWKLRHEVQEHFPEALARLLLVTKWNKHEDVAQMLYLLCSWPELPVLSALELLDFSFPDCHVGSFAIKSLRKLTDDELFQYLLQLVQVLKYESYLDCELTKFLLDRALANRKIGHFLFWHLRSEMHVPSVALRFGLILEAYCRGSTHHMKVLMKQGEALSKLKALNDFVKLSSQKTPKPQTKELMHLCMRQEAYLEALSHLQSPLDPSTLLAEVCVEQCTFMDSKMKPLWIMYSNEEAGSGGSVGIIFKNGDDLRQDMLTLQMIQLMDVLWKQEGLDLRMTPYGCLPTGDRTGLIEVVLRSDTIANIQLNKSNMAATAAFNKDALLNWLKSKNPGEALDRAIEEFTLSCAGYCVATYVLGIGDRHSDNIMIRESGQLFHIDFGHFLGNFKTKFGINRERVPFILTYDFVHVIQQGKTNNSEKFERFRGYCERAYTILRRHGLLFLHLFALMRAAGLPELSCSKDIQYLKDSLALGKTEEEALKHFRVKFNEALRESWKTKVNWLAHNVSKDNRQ
Description: Inhibition of human N-terminal polyHis-tagged PI3K p110delta expressed in baculovirus infected Hi5 cells using Phosphatidylinositol-4,5-bisphosphate as substrate after 20 mins by AlphaScreen assay

in vivo [17] = conditions: Sprague-Dawley, rat, plasma, po, 2 mg/kg
in vivo [18] = conditions: Sprague-Dawley, rat, iv, 1 mg/kg
Description: as §1

in vivo [19] = conditions: Sprague-Dawley, rat, iv, 1 mg/kg; remark: listed apart in the source
in vivo [20] = conditions: Sprague-Dawley, rat, po, 2 mg/kg
in vivo [21] = conditions: Sprague-Dawley, rat, iv, 1 mg/kg; remark: listed apart in the source
Description: as §2

rodent MDR1 = assay: Permeability across pig LLC-PK1 cells expressing rodent MDR1; type: ADME, cell-based, Sus scrofa; conditions: read-out: permeability
[22] = Plasma protein binding in rat; type: ADME, cell-free; conditions: read-out: PPB (converted)
[23] = Plasma protein binding in human; type: ADME, cell-free; conditions: read-out: PPB (converted)
Mus musculus [24] = assay: Inhibition of PI3K in human U87MG cells xenografted in po dosed CD1 nu/nu mouse assessed as plasma concentration required for inhibition of AKT ser473 phosphorylation after 6 hrs; type: functional, organism-based, U-87MG ATCC; conditions: CD1, U-87 MG
[25] = molecular target: Voltage-gated inwardly rectifying potassium channel KCNH2 (Homo sapiens, UniProt Q12809); assay: Inhibition of human ERG
[26] = Plasma protein binding in dog; type: ADME, cell-free, Canis lupus familiaris; conditions: read-out: PPB (converted)
[27] = Plasma protein binding in mouse; type: ADME, cell-free; conditions: read-out: PPB (converted)
human MDR1 = assay: Permeability across pig LLC-PK1 cells expressing human MDR1; type: ADME, cell-based, Sus scrofa; conditions: read-out: permeability
Mus musculus [28] = species on record: Mus musculus; conditions: CD1, U-87MG ATCC
Description: Inhibition of PI3K-mediated AKT Ser473 phosphorylation in human U87MG cells xenografted in po dosed CD1 nu/nu mouse after 6 hrs

Row | Structure (SMILES) | solubility thermodynamic (physchem [1]) [µg/mL] | Ki [2] [nM] | solubility thermodynamic (physchem [3]) [µg/mL] | solubility thermodynamic (physchem [4]) [µg/mL] | also measured
1 | COc1cnc(Nc2cnc(Cl)c(NS(=O)(=O)N3CCOCC3)c2)c(-c2nc(C)nc(N)n2)c1 | 14 (≈ 27.6 µM) | 13 | 1 (≈ 1.97 µM) | 5 (≈ 9.84 µM) | 
2 | Cc1nc(N)nc(-c2cc(Cl)cnc2Nc2cnc(Cl)c(NS(=O)(=O)c3cccnc3)c2)n1 |  | 13 |  |  | 
3 | Cc1nc(N)nc(-c2cc(CN3CCOCC3)cnc2Nc2cnc(Cl)c(NS(=O)(=O)N(C)C)c2)n1 | 11 (≈ 20.6 µM) | 1.9 | 16 (≈ 29.9 µM) | 200 (≈ 374 µM) | 
4 | Cc1nc(N)nc(-c2cccnc2Nc2cnc(Cl)c(NS(=O)(=O)N(C)C(C)C)c2)n1 |  | 43 |  |  | 
5 | Cc1nc(N)nc(-c2cc(CN3CCOCC3)cnc2Nc2cnc(Cl)c(NS(C)(=O)=O)c2)n1 | 11 (≈ 21.7 µM) | 9.7 | 8 (≈ 15.8 µM) | 200 (≈ 395 µM) | 
6 | Cc1nc(N)nc(-c2cccnc2Nc2cnc(Cl)c(NS(C)(=O)=O)c2)n1 | 2900 (≈ 7130 µM) | 20 | 46200 (≈ 114000 µM) | 5800 (≈ 14300 µM) | F (Rattus norvegicus [5]): 33%; IC50 [6]: 198 nM; MRT (Rattus norvegicus [7]): 4.5 h; Ki [8]: 4.4 nM; Ki [9]: 2.4 nM; Vdss (Rattus norvegicus [10]): 0.4 L/kg; IC50 [11]: 1290 nM; AUC (Rattus norvegicus [12]): 4238 ng·h/mL; CL (Rattus norvegicus [13]): 6.5 mL/min/kg; microsomal CLint at 0.5 h, 1 µM (in vitro [14]): < 14 µL/min/mg; microsomal CLint at 0.5 h, 1 µM (in vitro [15]): < 14 µL/min/mg; Ki [16]: 1.2 nM
7 | Cc1nc(N)nc(-c2cccnc2Nc2cnc(Cl)c(NS(=O)(=O)N3CCOCC3)c2)n1 |  | 16 |  |  | 
8 | Cc1nc(N)nc(-c2cc(Cl)cnc2Nc2cnc(Cl)c(NS(C)(=O)=O)c2)n1 | 1000 (≈ 2270 µM) | 3.5 | 1000 (≈ 2270 µM) | 1000 (≈ 2270 µM) | 
9 | Cc1nc(N)nc(-c2cccnc2Nc2cnc(Cl)c(N)c2)n1 |  | 360 |  |  | 
10 | COCCOc1cnc(Nc2cnc(Cl)c(NS(C)(=O)=O)c2)c(-c2nc(C)nc(N)n2)c1 | 34 (≈ 70.7 µM) | 18 | 43 (≈ 89.4 µM) | 33 (≈ 68.6 µM) | AUC (in vivo [17]): 1210 ng·h/mL; MRT (in vivo [18]): 1.1 h; Vd (in vivo [19]): 0.52 L/kg; IC50 [6]: 32 nM; bioavailability (in vivo [20]): 28%; Ki [8]: 16 nM; Ki [9]: 14 nM; microsomal CLint at 0.5 h, 1 µM (in vitro [14]): < 14 µL/min/mg; clearance (in vivo [21]): 7.67 mL/min/kg; microsomal CLint at 0.5 h, 1 µM (in vitro [15]): < 14 µL/min/mg; Ki [16]: 6.1 nM
11 | COc1ncc(Nc2ncc(Cl)cc2-c2nc(C)nc(N)n2)cc1NS(C)(=O)=O |  | 114 |  |  | 
12 | Cc1nc(N)nc(-c2cccnc2Nc2cnc(Cl)c(NS(=O)(=O)N(C)C)c2)n1 | 3600 (≈ 8260 µM) | 11 | 1000 (≈ 2290 µM) | 4700 (≈ 10800 µM) | 
13 | Cc1nc(N)nc(-c2cc(Cl)cnc2Nc2cnc(Cl)c(NS(=O)(=O)N3CCOCC3)c2)n1 | 1000 (≈ 1950 µM) | 8.6 | 11100 (≈ 21700 µM) | 1000 (≈ 1950 µM) | 
14 | Cc1nc(N)nc(-c2cc(Cl)cnc2Nc2cnc(C)c(NS(C)(=O)=O)c2)n1 |  | 161 |  |  | 
15 | Cc1nc(N)nc(-c2cccnc2Nc2cnc(Cl)c(NS(=O)(=O)c3ccc(F)cc3)c2)n1 | 2900 (≈ 5960 µM) | 16 | 46200 (≈ 94900 µM) | 5800 (≈ 11900 µM) | 
16 | Cc1nc(N)nc(-c2cc(Cl)cnc2Nc2cnc(Cl)c(N(C)S(C)(=O)=O)c2)n1 |  | 311 |  |  | 
17 | Cc1nc(N)nc(-c2cccnc2Nc2cnc(Cl)c(NS(=O)(=O)C3CC3)c2)n1 | 1000 (≈ 2310 µM) | 11 | 3600 (≈ 8320 µM) | 1000 (≈ 2310 µM) | 
18 | COCCN(C)S(=O)(=O)Nc1cc(Nc2ncc(Cl)cc2-c2nc(C)nc(N)n2)cnc1Cl | 1000 (≈ 1940 µM) | 29 | 3200 (≈ 6220 µM) | 3200 (≈ 6220 µM) | 
19 | COc1cnc(Nc2cnc(Cl)c(NS(=O)(=O)N(C)C)c2)c(-c2nc(C)nc(N)n2)c1 | 4 (≈ 8.59 µM) | 9.3 | 1 (≈ 2.15 µM) | 3 (≈ 6.44 µM) | AUC (in vivo [17]): 859 ng·h/mL; MRT (in vivo [18]): 2 h; Vd (in vivo [19]): 1.01 L/kg; IC50 [6]: 74 nM; bioavailability (in vivo [20]): 22%; Ki [8]: 4.7 nM; Ki [9]: 2.2 nM; microsomal CLint at 0.5 h, 1 µM (in vitro [14]): 20 µL/min/mg; clearance (in vivo [21]): 8.67 mL/min/kg; microsomal CLint at 0.5 h, 1 µM (in vitro [15]): 26 µL/min/mg; Ki [16]: 1.1 nM
20 | COc1cnc(Nc2cnc(Cl)c(NS(C)(=O)=O)c2)c(-c2nc(C)nc(N)n2)c1 | 1 (≈ 2.29 µM) | 11 | 1 (≈ 2.29 µM) | 1 (≈ 2.29 µM) | F (Rattus norvegicus [5]): 1.8%; MRT (in vivo [18]): 1.3 h; Vd (in vivo [19]): 0.28 L/kg; AUC (Rattus norvegicus [12]): 419 ng·h/mL; CL (Rattus norvegicus [13]): 3.5 mL/min/kg; microsomal CLint at 0.5 h, 1 µM (in vitro [14]): < 14 µL/min/mg; microsomal CLint at 0.5 h, 1 µM (in vitro [15]): < 14 µL/min/mg
21 | Cc1nc(N)nc(-c2cc(Cl)cnc2Nc2cnc(Cl)c(NS(=O)(=O)N(C)C)c2)n1 | 2000 (≈ 4250 µM) | 7.7 | 11600 (≈ 24700 µM) | 1000 (≈ 2130 µM) | AUC (in vivo [17]): 3360 ng·h/mL; MRT (in vivo [18]): 2.5 h; Vd (in vivo [19]): 0.97 L/kg; Papp (rodent MDR1): 12.2 ×10⁻⁶ cm/s; fraction unbound [22]: 0.002; bioavailability (in vivo [20]): 63%; Ki [8]: 0.6 nM; Ki [9]: 1 nM; IC50 [11]: 606 nM; fraction unbound [23]: 0.002; EC50 (Mus musculus [24]): 0.091 µg/mL (≈ 0.193 µM); microsomal CLint at 0.5 h, 1 µM (in vitro [14]): 27 µL/min/mg; inhibition (INH) [25]: Not Active; clearance (in vivo [21]): 6.5 mL/min/kg; microsomal CLint at 0.5 h, 1 µM (in vitro [15]): 47 µL/min/mg; Ki [16]: 0.4 nM; fraction unbound [26]: 0.0035; fraction unbound [27]: 0.0287; Papp (human MDR1): 12.2 ×10⁻⁶ cm/s; inhibition (Mus musculus [28]): Dose-dependent effect
